Values quoted from earlier work, collected in patent US20140243418A1, “RASAGILINE FOR PARKINSON'S DISEASE MODIFICATION” (Teva Pharmaceutical Industries, Ltd., priority 2008, published 2014).

Legend:
[1] = target: T1, Type-B Monoamine Oxidase (MAO-B) (Homo sapiens, UniProt P27338); details: cited from earlier work
T1 sequence (P27338 1-520): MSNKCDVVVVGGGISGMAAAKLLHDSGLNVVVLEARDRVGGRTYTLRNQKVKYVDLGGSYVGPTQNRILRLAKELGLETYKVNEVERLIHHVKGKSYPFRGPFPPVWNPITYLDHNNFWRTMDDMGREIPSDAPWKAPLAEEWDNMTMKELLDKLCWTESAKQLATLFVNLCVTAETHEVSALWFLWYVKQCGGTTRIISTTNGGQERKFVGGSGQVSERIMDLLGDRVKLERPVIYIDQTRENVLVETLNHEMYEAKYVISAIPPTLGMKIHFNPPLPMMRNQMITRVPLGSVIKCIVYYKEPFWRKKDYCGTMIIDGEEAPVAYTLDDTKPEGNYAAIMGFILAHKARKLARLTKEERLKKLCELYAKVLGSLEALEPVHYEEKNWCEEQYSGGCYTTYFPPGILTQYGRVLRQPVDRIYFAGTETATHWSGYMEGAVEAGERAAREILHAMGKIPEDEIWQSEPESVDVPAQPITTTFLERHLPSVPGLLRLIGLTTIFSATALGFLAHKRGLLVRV

Parkinson's disease [2] = details: three doses tested; time to need for levodopa as primary endpoint; cited from earlier work
Parkinson's disease [3] = details: 12 months of treatment and 2 months of drug wash-out; vs placebo; cited from earlier work

| Structure (SMILES) | inhibition of Type-B Monoamine Oxidase (MAO-B) [1] | effect on primary or secondary endpoints (Parkinson's disease [2]) | deterioration from baseline in UPDRS motor score (Parkinson's disease [3]) |
| --- | --- | --- | --- |
| C#CCN(C)CC1=Cc2ccccc2Oc2ccccc21.O=C(O)/C=C\C(=O)O [TCH346] | did not inhibit | did not demonstrate a positive effect | – |
| C#CCN(C)[C@H](C)Cc1ccccc1 [selegiline] | – | – | less deterioration from baseline than patients treated with placebo |
